Measurements taken from ChEMBL document CHEMBL3885861, “Open TG-GATES”.

Organism: Rattus norvegicus
Assay: Open TG-GATES - Regimen: Daily Repeat
Format: toxicity, organism-based, Sprague-Dawley
Design: regimen Daily Repeat, gender Male, age 6 weeks
Conditions: in vivo, po, route gavage; for APTT / Bas / Eos / Fbg / Ht / Lym / MCH / MCHC / MCV / Mono / Neu / PT / Plat / RBC / Ret / WBC: tissue Blood; for KIDNEY_L / KIDNEY_R / KIDNEY_TOTAL: tissue Kidney; for LIVER: tissue Liver; for ALP / ALT / AST / BUN / CRE / Ca / Cl / DBIL / GLC / IP / K / LDH / Na / PL / RALB / TBIL / TC / TG / TP / gamma-GTP: tissue Plasma
[1] = 0 mg/kg, 72 h, dose level Control, time 3 day
[2] = 0 mg/kg, […], dose level Control, time 7 day
[3] = 0 mg/kg, […], dose level Control, time 14 day
[4] = 0 mg/kg, […], dose level Control, time 28 day
[5] = 10 mg/kg, 72 h, dose level Low, time 3 day
[6] = 10 mg/kg, […], dose level Low, time 7 day
[7] = 10 mg/kg, […], dose level Low, time 14 day
[8] = 10 mg/kg, […], dose level Low, time 28 day

## Cc1cccc(Nc2cc(Cl)nc(SCC(=O)O)n2)c1C [PIRINIXIC ACID]
[1]
  TERMINAL_BW: 233.5 g
  APTT: 16.4 s
  Bas: 0%
  Eos: 1.2%
  Fbg: 285 mg/dL
  Ht: 39.4%
  Lym: 75.2%
  MCH: 22.2 pg
  MCHC: 34.4%
  MCV: 64.7 fL
  Mono: 2.8%
  Neu: 20.2%
  PT: 12.3 s
  Plat: 109.1 x10_4/uL
  RBC: 609.4 x10_4/ul
  Ret: 7%
  WBC: 85.4 x10_2/uL
  KIDNEY_L: 1 g
  KIDNEY_R: 1 g
  KIDNEY_TOTAL: 1.9 g
  LIVER: 10.9 g
  ALP: 1563.4 IU/L
  ALT: 50 IU/L
  AST: 77 IU/L
  BUN: 15.8 mg/dL
  CRE: 0.2 mg/dL
  Ca: 10.8 mg/dL
  Cl: 105.4 meq/L
  DBIL: 0.024 mg/dL
  GLC: 201.2 mg/dL
  IP: 8.2 mg/dL
  K: 3.8 meq/L
  LDH: 80.4 IU/L
  Na: 143 meq/L
  PL: 155 mg/dL
  RALB: 2.6 g/dL
  TBIL: 0.032 mg/dL
  TC: 79.6 mg/dL
  TG: 92.8 mg/dL
  TP: 5.5 g/dL
  gamma-GTP: 1.6 IU/L
[2]
  TERMINAL_BW: 265.8 g
  APTT: 16.6 s
  Bas: 0%
  Eos: 0.4%
  Fbg: 312.6 mg/dL
  Ht: 40.4%
  Lym: 83.4%
  MCH: 21.7 pg
  MCHC: 34.7%
  MCV: 62.3 fL
  Mono: 2.2%
  Neu: 13.8%
  PT: 12.3 s
  Plat: 127.6 x10_4/uL
  RBC: 648.6 x10_4/ul
  Ret: 5.5%
  WBC: 89.6 x10_2/uL
  KIDNEY_L: 1.1 g
  KIDNEY_R: 1 g
  KIDNEY_TOTAL: 2.1 g
  LIVER: 12.4 g
  ALP: 1820.8 IU/L
  ALT: 48.8 IU/L
  AST: 67.6 IU/L
  BUN: 19.4 mg/dL
  CRE: 0.2 mg/dL
  Ca: 11 mg/dL
  Cl: 105 meq/L
  DBIL: 0.02 mg/dL
  GLC: 205.6 mg/dL
  IP: 7.1 mg/dL
  K: 4 meq/L
  LDH: 80 IU/L
  Na: 142.4 meq/L
  PL: 164.2 mg/dL
  RALB: 2.7 g/dL
  TBIL: 0.036 mg/dL
  TC: 80.8 mg/dL
  TG: 128.4 mg/dL
  TP: 5.9 g/dL
  gamma-GTP: 1 IU/L
[3]
  TERMINAL_BW: 320.3 g
  APTT: 15.5 s
  Bas: 0%
  Eos: 0.8%
  Fbg: 324.2 mg/dL
  Ht: 41.1%
  Lym: 77.6%
  MCH: 20.2 pg
  MCHC: 35.2%
  MCV: 57.3 fL
  Mono: 2.4%
  Neu: 18.6%
  PT: 12.4 s
  Plat: 119.6 x10_4/uL
  RBC: 716.8 x10_4/ul
  Ret: 4.1%
  WBC: 101.8 x10_2/uL
  KIDNEY_L: 1.2 g
  KIDNEY_R: 1.2 g
  KIDNEY_TOTAL: 2.5 g
  LIVER: 14.7 g
  ALP: 1141.6 IU/L
  ALT: 41.2 IU/L
  AST: 65.8 IU/L
  BUN: 16 mg/dL
  CRE: 0.2 mg/dL
  Ca: 10.6 mg/dL
  Cl: 105.2 meq/L
  DBIL: 0.016 mg/dL
  GLC: 202.4 mg/dL
  IP: 7.1 mg/dL
  K: 3.8 meq/L
  LDH: 78.8 IU/L
  Na: 143.4 meq/L
  PL: 139.6 mg/dL
  RALB: 2.8 g/dL
  TBIL: 0.03 mg/dL
  TC: 69 mg/dL
  TG: 117.4 mg/dL
  TP: 6 g/dL
  gamma-GTP: 1.2 IU/L
[4]
  TERMINAL_BW: 387.5 g
  APTT: 17.7 s
  Bas: 0%
  Eos: 1.2%
  Fbg: 284.6 mg/dL
  Ht: 44.2%
  Lym: 75%
  MCH: 19.8 pg
  MCHC: 35.6%
  MCV: 55.5 fL
  Mono: 2.4%
  Neu: 20.6%
  PT: 12.3 s
  Plat: 100.6 x10_4/uL
  RBC: 796.8 x10_4/ul
  Ret: 2.3%
  WBC: 82.2 x10_2/uL
  KIDNEY_L: 1.4 g
  KIDNEY_R: 1.3 g
  KIDNEY_TOTAL: 2.7 g
  LIVER: 15.5 g
  ALP: 955.2 IU/L
  ALT: 36.2 IU/L
  AST: 59.4 IU/L
  BUN: 14 mg/dL
  CRE: 0.2 mg/dL
  Ca: 10.7 mg/dL
  Cl: 106.6 meq/L
  DBIL: 0.018 mg/dL
  GLC: 199 mg/dL
  IP: 6.5 mg/dL
  K: 3.5 meq/L
  LDH: 48.8 IU/L
  Na: 144.2 meq/L
  PL: 139.6 mg/dL
  RALB: 2.8 g/dL
  TBIL: 0.064 mg/dL
  TC: 75.8 mg/dL
  TG: 90.4 mg/dL
  TP: 6.4 g/dL
  gamma-GTP: 1 IU/L
[5]
  TERMINAL_BW: 232.6 g
  APTT: 15.8 s
  Bas: 0%
  Eos: 1%
  Fbg: 215.2 mg/dL
  Ht: 39%
  Lym: 76.6%
  MCH: 21.6 pg
  MCHC: 34%
  MCV: 63.6 fL
  Mono: 2.6%
  Neu: 19.2%
  PT: 12.5 s
  Plat: 111.3 x10_4/uL
  RBC: 612.8 x10_4/ul
  Ret: 6.1%
  WBC: 76.7 x10_2/uL
  KIDNEY_L: 1 g
  KIDNEY_R: 1 g
  KIDNEY_TOTAL: 1.9 g
  LIVER: 14.4 g
  ALP: 2039.8 IU/L
  ALT: 60.6 IU/L
  AST: 81.6 IU/L
  BUN: 14.6 mg/dL
  CRE: 0.2 mg/dL
  Ca: 10.8 mg/dL
  Cl: 106 meq/L
  DBIL: 0.02 mg/dL
  GLC: 210 mg/dL
  IP: 7.5 mg/dL
  K: 4.1 meq/L
  LDH: 90 IU/L
  Na: 143.8 meq/L
  PL: 111.8 mg/dL
  RALB: 2.7 g/dL
  TBIL: 0.03 mg/dL
  TC: 55 mg/dL
  TG: 31.2 mg/dL
  TP: 5.4 g/dL
  gamma-GTP: 1.2 IU/L
[6]
  TERMINAL_BW: 276.5 g
  APTT: 17.8 s
  Bas: 0%
  Eos: 1%
  Fbg: 262.8 mg/dL
  Ht: 38.4%
  Lym: 76.4%
  MCH: 21.6 pg
  MCHC: 34.9%
  MCV: 61.8 fL
  Mono: 3.2%
  Neu: 19.2%
  PT: 12.6 s
  Plat: 130.2 x10_4/uL
  RBC: 621.6 x10_4/ul
  Ret: 5.9%
  WBC: 93.9 x10_2/uL
  KIDNEY_L: 1.2 g
  KIDNEY_R: 1.1 g
  KIDNEY_TOTAL: 2.3 g
  LIVER: 20.3 g
  ALP: 1837.8 IU/L
  ALT: 49.2 IU/L
  AST: 65.4 IU/L
  BUN: 18.4 mg/dL
  CRE: 0.2 mg/dL
  Ca: 11.2 mg/dL
  Cl: 102.4 meq/L
  DBIL: 0.014 mg/dL
  GLC: 202.6 mg/dL
  IP: 7.2 mg/dL
  K: 4.2 meq/L
  LDH: 98.8 IU/L
  Na: 142.2 meq/L
  PL: 148.6 mg/dL
  RALB: 3 g/dL
  TBIL: 0.026 mg/dL
  TC: 77.6 mg/dL
  TG: 60.4 mg/dL
  TP: 6.2 g/dL
  gamma-GTP: 1 IU/L
[7]
  TERMINAL_BW: 313.7 g
  APTT: 17.3 s
  Bas: 0.2%
  Eos: 1%
  Fbg: 262.8 mg/dL
  Ht: 38.9%
  Lym: 78.8%
  MCH: 20.7 pg
  MCHC: 35.3%
  MCV: 58.6 fL
  Mono: 2.8%
  Neu: 16%
  PT: 12.5 s
  Plat: 132.4 x10_4/uL
  RBC: 664.6 x10_4/ul
  Ret: 4.7%
  WBC: 110.5 x10_2/uL
  KIDNEY_L: 1.3 g
  KIDNEY_R: 1.3 g
  KIDNEY_TOTAL: 2.6 g
  LIVER: 22.8 g
  ALP: 1550.8 IU/L
  ALT: 45 IU/L
  AST: 64 IU/L
  BUN: 17.4 mg/dL
  CRE: 0.2 mg/dL
  Ca: 10.5 mg/dL
  Cl: 103.2 meq/L
  DBIL: 0.016 mg/dL
  GLC: 206.8 mg/dL
  IP: 7.4 mg/dL
  K: 3.8 meq/L
  LDH: 97.2 IU/L
  Na: 142.2 meq/L
  PL: 144.2 mg/dL
  RALB: 2.9 g/dL
  TBIL: 0.032 mg/dL
  TC: 67.2 mg/dL
  TG: 53.6 mg/dL
  TP: 6.2 g/dL
  gamma-GTP: 1.2 IU/L
[8]
  TERMINAL_BW: 373.2 g
  APTT: 16.3 s
  Bas: 0%
  Eos: 1%
  Fbg: 251.2 mg/dL
  Ht: 39.5%
  Lym: 76.8%
  MCH: 19.7 pg
  MCHC: 35.9%
  MCV: 54.9 fL
  Mono: 3.6%
  Neu: 18%
  PT: 12.2 s
  Plat: 118 x10_4/uL
  RBC: 720.4 x10_4/ul
  Ret: 2.7%
  WBC: 97.4 x10_2/uL
  KIDNEY_L: 1.4 g
  KIDNEY_R: 1.4 g
  KIDNEY_TOTAL: 2.9 g
  LIVER: 26.4 g
  ALP: 1413.8 IU/L
  ALT: 50.4 IU/L
  AST: 63.6 IU/L
  BUN: 17.6 mg/dL
  CRE: 0.2 mg/dL
  Ca: 11 mg/dL
  Cl: 103.8 meq/L
  DBIL: 0.014 mg/dL
  GLC: 188.6 mg/dL
  IP: 7.4 mg/dL
  K: 3.7 meq/L
  LDH: 115 IU/L
  Na: 143 meq/L
  PL: 155.2 mg/dL
  RALB: 3.1 g/dL
  TBIL: 0.048 mg/dL
  TC: 79.4 mg/dL
  TG: 63.4 mg/dL
  TP: 6.8 g/dL
